PubChem BioAssay AID248 (DTP/NCI, 2004)
Inconclusive results and toxic doses are left out. Cut-off read from the data, not from the text of the source: active = T/C of 150% or more; inactive = T/C below 125%.

System: L1210 leukemia ip in BDF1 mice, survival T/C
Assay: NCI In Vivo Anticancer Drug Screen. Data for tumor model L1210 Leukemia (intraperitoneal) in B6D2F1 (BDF1) mice
Conditions: endpoint: mean survival time, higher = longer survival
Procedure, shortened: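 Transplanted-tumor mice were given test agent; controls received vehicle only. Survival readings from the two groups were divided (treated over control).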

[1] = dose: 100.0 mg/kg/injection, schedule: Q01DX009 (ip), vehicle: saline with Tween-80
[2] = dose: 200.0 mg/kg/injection, schedule: Q01DX009 (ip), vehicle: saline with Tween-80
[3] = dose: 400.0 mg/kg/injection, schedule: Q01DX009 (ip), vehicle: saline with Tween-80
[4] = dose: 100.0 mg/kg/injection, schedule: Q04DX003 (ip), vehicle: saline with Tween-80
[5] = dose: 200.0 mg/kg/injection, schedule: Q04DX003 (ip), vehicle: saline with Tween-80
[6] = dose: 400.0 mg/kg/injection, schedule: Q04DX003 (ip), vehicle: saline with Tween-80
[7] = dose: 100.0 mg/kg/injection, schedule: Q01DX001 (ip), vehicle: saline
[8] = dose: 100.0 mg/kg/injection, schedule: Q04DX003 (ip), vehicle: saline
[9] = dose: 200.0 mg/kg/injection, schedule: Q04DX003 (ip), vehicle: saline
[10] = dose: 100.0 mg/kg/injection, schedule: Q04DX002 (ip), vehicle: saline with Tween-80
[11] = dose: 200.0 mg/kg/injection, schedule: Q04DX002 (ip), vehicle: saline with Tween-80
[12] = dose: 400.0 mg/kg/injection, schedule: Q04DX002 (ip), vehicle: saline with Tween-80
[13] = dose: 200.0 mg/kg/injection, schedule: Q01DX001 (ip), vehicle: saline
[14] = dose: 400.0 mg/kg/injection, schedule: Q01DX001 (ip), vehicle: saline
[15] = dose: 100.0 mg/kg/injection, schedule: Q01DX001 (ip), vehicle: carboxymethylcellulose (CMC)
[16] = dose: 200.0 mg/kg/injection, schedule: Q01DX001 (ip), vehicle: carboxymethylcellulose (CMC)
[17] = dose: 400.0 mg/kg/injection, schedule: Q01DX001 (ip), vehicle: carboxymethylcellulose (CMC)
[18] = dose: 100.0 mg/kg/injection, schedule: Q01DX009 (ip), vehicle: Klucel (hydroxypropylcellulose) (HPC)
[19] = dose: 100.0 mg/kg/injection, schedule: Q04DX003 (ip), vehicle: Klucel (hydroxypropylcellulose) (HPC)
[20] = dose: 200.0 mg/kg/injection, schedule: Q01DX009 (ip), vehicle: Klucel (hydroxypropylcellulose) (HPC)
[21] = dose: 200.0 mg/kg/injection, schedule: Q04DX003 (ip), vehicle: Klucel (hydroxypropylcellulose) (HPC)
[22] = dose: 400.0 mg/kg/injection, schedule: Q01DX009 (ip), vehicle: Klucel (hydroxypropylcellulose) (HPC)
[23] = dose: 400.0 mg/kg/injection, schedule: Q04DX003 (ip), vehicle: Klucel (hydroxypropylcellulose) (HPC)
[24] = dose: 50.0 mg/kg/injection, schedule: Q01DX009 (ip), vehicle: saline with Tween-80

Measured: T/C

COc1cc2c(c(OC)c1OC)-c1cc3c(cc1[C@@H](OC(C)=O)[C@@H]1COC(=O)[C@H]1C2)OCO3
inactive: dose: 6.22 mg/kg/injection, schedule: Q01DX009 (ip), vehicle: saline + alcohol 89 % of control | dose: 9.33 mg/kg/injection, schedule: Q01DX009 (ip), vehicle: saline + alcohol 94 % of control | dose: 14.0 mg/kg/injection, schedule: Q01DX009 (ip), vehicle: saline + alcohol 107 % of control | dose: 21.0 mg/kg/injection, schedule: Q01DX009 (ip), vehicle: saline + alcohol 105 % of control

CC(C)CCC(C)C1CCC2C3CC([N+](=O)[O-])=C4CC(OC(=O)c5ccccc5)CCC4(C)C3CCC12C (stereo unspecified)
inactive: [1] 103 % of control | [2] 90 % of control | [3] 90 % of control

C(=NCCN=Cc1ccccc1)c1ccccc1
inactive: [4] 101 % of control | [5] 95 % of control | [6] 111 % of control

CS(=O)(=O)OCCCS(=O)(=O)O
inactive: [7] 102 % of control

C/C(=C(/CCO)SCC/C(=N/O)c1ccccc1)N(C=O)Cc1cnc(C)nc1N
inactive: [8] 104 % of control | [9] 97 % of control | dose: 400.0 mg/kg/injection, schedule: Q04DX003 (ip), vehicle: saline 93 % of control

O=[N+]([O-])c1ccc(OCCNS(=O)(=O)c2cccc(S(=O)(=O)F)c2)c(Cl)c1
inactive: [1] 104 % of control | [4] 97 % of control | [2] 88 % of control | [5] 95 % of control | [3] 90 % of control | [6] 101 % of control

COC1OC2COC(c3ccccc3)OC2C(=O)C1OS(=O)(=O)c1ccc(C)cc1 (stereo unspecified)
inactive: [5] 89 % of control | [6] 86 % of control

CCC(CC)NC(C)CO (stereo unspecified)
inactive: dose: 75.0 mg/kg/injection, schedule: Q01DX001 (ip), vehicle: acid diluted with saline 105 % of control | dose: 150.0 mg/kg/injection, schedule: Q01DX001 (ip), vehicle: acid diluted with saline 103 % of control | dose: 300.0 mg/kg/injection, schedule: Q01DX001 (ip), vehicle: acid diluted with saline 103 % of control

COC1OC2COc3ccccc3OC2C(N=Cc2ccccc2)C1O (stereo unspecified)
inactive: [4] 102 % of control | [5] 102 % of control | [6] 98 % of control

NC(=O)/C=C\C(=O)O (tested in a mixture with another compound)
inactive: dose: 31.25 mg/kg/injection, schedule: Q#A X Z (ip), vehicle: carboxymethylcellulose (CMC) 106 % of control | dose: 62.5 mg/kg/injection, schedule: Q#A X Z (ip), vehicle: carboxymethylcellulose (CMC) 110 % of control | dose: 125.0 mg/kg/injection, schedule: Q#A X Z (ip), vehicle: carboxymethylcellulose (CMC) 118 % of control | dose: 250.0 mg/kg/injection, schedule: Q#A X Z (ip), vehicle: carboxymethylcellulose (CMC) 108 % of control

CCOCC(=O)Oc1ccc(/C=N/NC(N)=S)nc1
inactive: [10] 116 % of control | [11] 113 % of control | [12] 116 % of control

Nc1nc(N)c(C=O)c(Nc2ccc(I)cc2)n1
inactive: dose: 50.0 mg/kg/injection, schedule: Q01DX001 (ip), vehicle: saline 100 % of control | [7] 100 % of control | [13] 123 % of control | [14] 117 % of control

COc1cc([N+](=O)[O-])c2nc(C)ccc2c1[N+](=O)[O-]
inactive: dose: 50.0 mg/kg/injection, schedule: Q01DX001 (ip), vehicle: carboxymethylcellulose (CMC) 100 % of control | [15] 100 % of control | [16] 100 % of control | [17] 100 % of control

CC(=O)OC1CCC2(C)C(=CCC3C2CCC2(C)C3CC3C(c4ccccc4C)=NN(c4ccccc4)C32C#N)C1 (stereo unspecified)
inactive: dose: 12.5 mg/kg/injection, schedule: Q04DX002 (ip), vehicle: Klucel (hydroxypropylcellulose) (HPC) 102 % of control | dose: 25.0 mg/kg/injection, schedule: Q04DX002 (ip), vehicle: Klucel (hydroxypropylcellulose) (HPC) 97 % of control | dose: 50.0 mg/kg/injection, schedule: Q04DX002 (ip), vehicle: Klucel (hydroxypropylcellulose) (HPC) 97 % of control

O=C(COc1ccc(Cl)cc1Cl)NCc1ccc(Cl)cc1
inactive: [18] 91 % of control | [19] 112 % of control | [20] 96 % of control | [21] 96 % of control | [22] 94 % of control | [23] 95 % of control

CCC1([N+](=O)[O-])COP(=O)(N2CC2C)OC1 (stereo unspecified)
inactive: [15] 98 % of control | [16] 96 % of control | [17] 98 % of control

CCCCCCCCCCCCCCCc1cccc2ccccc12
inactive: [4] 92 % of control | [5] 92 % of control | [6] 88 % of control

CCc1ccc(NC(=O)CCC(=O)O)cc1
inactive: [18] 102 % of control | [20] 93 % of control | [22] 90 % of control

CCOC(=O)C(C(=O)OCC)C(C)c1ccc([N+](=O)[O-])cc1 (stereo unspecified)
inactive: [1] 106 % of control | [10] 100 % of control | [2] 106 % of control | [11] 103 % of control | [3] 113 % of control | [12] 92 % of control

CCOc1ccc(-n2c(O)c(N=Nc3ccccc3C)c(=O)n(-c3ccc(OC)cc3)c2=S)cc1
inactive: dose: 100.0 mg/kg/injection, schedule: Q01DX001 (ip), vehicle: Klucel (hydroxypropylcellulose) (HPC) 94 % of control | dose: 200.0 mg/kg/injection, schedule: Q01DX001 (ip), vehicle: Klucel (hydroxypropylcellulose) (HPC) 95 % of control | dose: 400.0 mg/kg/injection, schedule: Q01DX001 (ip), vehicle: Klucel (hydroxypropylcellulose) (HPC) 89 % of control

CC(=O)Oc1cc2c(cc1N=NN(C)C)[C@H]1CC[C@]3(C)[C@@H](O)CC[C@H]3[C@@H]1CC2
inactive: dose: 50.0 mg/kg/injection, schedule: Q01DX009 (ip), vehicle: Klucel (hydroxypropylcellulose) (HPC) 95 % of control

CC(C)(C)c1ccc(C(=O)C2CC2)cc1
inactive: [24] 90 % of control | [1] 92 % of control

O=C(O)CCN(c1ccccc1)S(=O)(=O)c1ccccc1
inactive: [7] 94 % of control | [13] 94 % of control | [14] 94 % of control

CCOC(=O)Cn1c(=O)c2ccccc2c2cc([N+](=O)[O-])ccc21
inactive: [19] 95 % of control | [21] 97 % of control | [23] 86 % of control

OC(CNc1ccc(Cl)cc1)CN1CCOCC1 (stereo unspecified)
inactive: [8] 96 % of control | [9] 89 % of control

COc1ccc(OC(=O)Nc2ccccc2OC)cc1
inactive: [18] 97 % of control | [19] 98 % of control | [20] 100 % of control | [21] 96 % of control | [22] 95 % of control | [23] 95 % of control

O=C1c2ccccc2C(=O)N1CNCCCNCN1C(=O)c2ccccc2C1=O
inactive: [4] 93 % of control | [5] 95 % of control | [6] 96 % of control

CC(C(=O)c1ccc(-c2ccccc2)cc1)C(Cl)c1ccccc1 (stereo unspecified)
inactive: [1] 106 % of control | [2] 94 % of control | [3] 97 % of control

O=C(N/N=C/c1cccc(F)c1)c1ccc(Cl)cc1
inactive: [24] 94 % of control | [1] 91 % of control | [2] 94 % of control

CCCCCCCCNC(=O)c1ccc([N+](=O)[O-])s1
inactive: dose: 100.0 mg/kg/injection, schedule: Q01DX005 (ip), vehicle: saline 94 % of control | dose: 200.0 mg/kg/injection, schedule: Q01DX005 (ip), vehicle: saline 94 % of control | dose: 400.0 mg/kg/injection, schedule: Q01DX005 (ip), vehicle: saline 94 % of control

ClC(Cl)(Cl)c1ccc(C2OCCO2)cc1
inactive: dose: 177.0 mg/kg/injection, schedule: Q01DX001 (ip), vehicle: other 98 % of control | dose: 266.0 mg/kg/injection, schedule: Q01DX001 (ip), vehicle: other 110 % of control | dose: 400.0 mg/kg/injection, schedule: Q01DX001 (ip), vehicle: other 94 % of control | dose: 600.0 mg/kg/injection, schedule: Q01DX001 (ip), vehicle: other 111 % of control

Cc1cccc(Cl)c1NC(=O)NCCCl
inactive: [19] 94 % of control | [21] 92 % of control | [23] 94 % of control

CC(=O)CC(C)=Nc1ccc([N+](=O)[O-])cc1
inactive: [4] 101 % of control | [5] 103 % of control | [6] 89 % of control

c1ccc(-c2nc(N3CCOCC3)nc3ccccc23)cc1
inactive: [1] 94 % of control | [2] 90 % of control
